According to the supplement of paper PMC8617591:

Columns and labels:
[1] = tested on: Mycobacterium tuberculosis Erdman (autoluminescent); assay: Einf, fitted maximum growth inhibition of three-drug combination (fraction); higher = stronger maximal inhibition
Experimental: (§1)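 DiaMOND equipotent three-drug combination dose responses (10 doses, 1.5- or 2-fold spacing, centred on IC90) against autoluminescent M. tuberculosis Erdman in 8 in vitro models. Read-out is OD600, or luminescence for the intracellular and dormancy models, normalised to untreated wells. Hill-fit Einf, AUC25 and GRinf are potency metrics; FIC50 and FIC90 are total Loewe fractional inhibitory concentrations as log2 (negative = synergy).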

[2] = tested on: Mycobacterium tuberculosis Erdman (autoluminescent); assay: GRinf, maximum normalised growth rate inhibition (three-drug combination) (unitless (-1 to 1)); higher = less effect (negative = killing)
Experimental: as §1

[3] = tested on: Mycobacterium tuberculosis Erdman (autoluminescent); assay: total FIC90 (Loewe) at 90% inhibition, three-drug combination (log2); higher = more antagonistic
Experimental: as §1

[4] = tested on: Mycobacterium tuberculosis Erdman (autoluminescent); assay: AUC25, normalised area under dose response up to IC25 (three-drug combination) (fraction (0-1)); higher = more potent at low dose
Experimental: as §1

[5] = tested on: Mycobacterium tuberculosis Erdman (autoluminescent); assay: total FIC50 (Loewe) at 50% inhibition, three-drug combination (log2); higher = more antagonistic
Experimental: as §1

CC(C)/N=c1\cc2n(-c3ccc(Cl)cc3)c3ccccc3nc-2cc1Nc1ccc(Cl)cc1 [clofazimine] + CC(=O)NC[C@H]1CN(c2ccc(N3CCOCC3)c(F)c2)C(=O)O1 [linezolid] + CO[C@H]1/C=C/O[C@@]2(C)Oc3c(C)c(O)c4c(O)c(c(/C=N/N5CCN(C6CCCC6)CC5)c(O)c4c3C2=O)NC(=O)/C(C)=C\C=C\[C@H](C)[C@H](O)[C@@H](C)[C@@H](O)[C@@H](C)[C@H](OC(C)=O)[C@@H]1C [rifapentine]
Conditions	AUC25, [4]	Einf, [1]	GRinf, [2]	total FIC50, [5]	total FIC90, [3]
in vitro model: acidic pH 5.7, time point: constant (~7 days, model-specific)	0.0854	0.874	-0.12	0.564	–
in vitro model: acidic pH 5.7, time point: terminal (~4-5 doublings, model-specific)	0.0814	0.98	-0.151	0.455	0.39
in vitro model: intracellular J774, time point: constant = terminal	–	0.926	-0.19	–	-0.239

Conditions	AUC25, [4]	Einf, [1]	GRinf, [2]	total FIC50, [5]	total FIC90, [3]
in vitro model: butyrate, time point: constant (~7 days, model-specific)	0.0929	0.918	-0.00889	0.328	1.2
in vitro model: butyrate, time point: terminal (~4-5 doublings, model-specific)	0.0457	0.943	0.0319	0.369	-0.292
in vitro model: cholesterol 0.05 mM, time point: constant (~7 days, model-specific)	0.126	0.731	-0.0827	-0.42	–
in vitro model: cholesterol 0.05 mM, time point: terminal (~4-5 doublings, model-specific)	0.136	0.942	-0.212	0.236	0.563
in vitro model: cholesterol-high 0.2 mM, time point: constant (~7 days, model-specific)	0.114	0.928	-0.916	0.312	1.27
in vitro model: cholesterol-high 0.2 mM, time point: terminal (~4-5 doublings, model-specific)	0.124	1	-0.975	0.111	0.601
in vitro model: dormancy (butyrate + nitrate, low O2), time point: constant (~7 days, model-specific)	0.0702	0.914	0.025	1.42	1.23
in vitro model: dormancy (butyrate + nitrate, low O2), time point: terminal (~4-5 doublings, model-specific)	0.046	0.99	-0.23	1.03	0.905
in vitro model: standard 7H9 glycerol, time point: constant = terminal	0.105	0.945	0.00644	0.0429	0.805
in vitro model: valerate, time point: constant (~7 days, model-specific)	0.113	0.883	-0.112	0.974	–
in vitro model: valerate, time point: terminal (~4-5 doublings, model-specific)	0.0863	0.95	-0.00893	0.608	1.24

CC(C)/N=c1\cc2n(-c3ccc(Cl)cc3)c3ccccc3nc-2cc1Nc1ccc(Cl)cc1 [clofazimine] + CC(=O)NC[C@H]1CN(c2ccc(N3CCOCC3)c(F)c2)C(=O)O1 [linezolid] + CO[C@H]1/C=C/O[C@@]2(C)Oc3c(C)c(O)c4c(O)c(c(/C=N/N5CCN(C)CC5)c(O)c4c3C2=O)NC(=O)/C(C)=C\C=C\[C@H](C)[C@H](O)[C@@H](C)[C@@H](O)[C@@H](C)[C@H](OC(C)=O)[C@@H]1C [rifampicin]
Conditions	AUC25, [4]	Einf, [1]	GRinf, [2]	total FIC50, [5]	total FIC90, [3]
in vitro model: acidic pH 5.7, time point: constant (~7 days, model-specific)	0.0866	0.853	-0.0709	0.38	–
in vitro model: acidic pH 5.7, time point: terminal (~4-5 doublings, model-specific)	0.0808	0.981	-0.119	0.419	0.256
in vitro model: intracellular J774, time point: constant = terminal	–	0.941	-0.215	–	-0.471

Conditions	AUC25, [4]	Einf, [1]	GRinf, [2]	total FIC50, [5]	total FIC90, [3]
in vitro model: butyrate, time point: constant (~7 days, model-specific)	0.103	0.922	-0.0328	0.22	0.103
in vitro model: butyrate, time point: terminal (~4-5 doublings, model-specific)	0.07	0.95	0.00888	0.26	-0.0854
in vitro model: cholesterol 0.05 mM, time point: constant (~7 days, model-specific)	0.14	0.687	0.0599	-0.708	–
in vitro model: cholesterol 0.05 mM, time point: terminal (~4-5 doublings, model-specific)	0.132	0.908	-0.188	4.59	-0.0601
in vitro model: cholesterol-high 0.2 mM, time point: constant (~7 days, model-specific)	0.13	0.963	-0.755	0.342	0.45
in vitro model: cholesterol-high 0.2 mM, time point: terminal (~4-5 doublings, model-specific)	0.107	0.995	-0.935	0.34	0.174
in vitro model: dormancy (butyrate + nitrate, low O2), time point: constant (~7 days, model-specific)	0.0831	0.908	0.229	1.29	0.832
in vitro model: dormancy (butyrate + nitrate, low O2), time point: terminal (~4-5 doublings, model-specific)	0.0549	0.979	-0.148	0.408	0.6
in vitro model: standard 7H9 glycerol, time point: constant = terminal	0.0962	0.917	0.0708	0.0668	0.29
in vitro model: valerate, time point: constant (~7 days, model-specific)	0.0981	0.885	-0.0893	0.928	–
in vitro model: valerate, time point: terminal (~4-5 doublings, model-specific)	0.058	0.942	-0.0199	0.756	0.805

CC(C)/N=c1\cc2n(-c3ccc(Cl)cc3)c3ccccc3nc-2cc1Nc1ccc(Cl)cc1 [clofazimine] + CC(=O)NC[C@H]1CN(c2ccc(N3CCOCC3)c(F)c2)C(=O)O1 [linezolid] + COc1c(N2C[C@@H]3CCCN[C@@H]3C2)c(F)cc2c(=O)c(C(=O)O)cn(C3CC3)c12 [moxifloxacin]
Conditions	AUC25, [4]	Einf, [1]	GRinf, [2]	total FIC50, [5]	total FIC90, [3]
in vitro model: acidic pH 5.7, time point: constant (~7 days, model-specific)	0.0788	0.706	-0.3	-0.736	–
in vitro model: acidic pH 5.7, time point: terminal (~4-5 doublings, model-specific)	0.0696	0.915	-0.183	0.837	-0.131
in vitro model: intracellular J774, time point: constant = terminal	–	0.859	-0.214	–	0.527

Conditions	AUC25, [4]	Einf, [1]	GRinf, [2]	total FIC50, [5]	total FIC90, [3]
in vitro model: butyrate, time point: constant (~7 days, model-specific)	0.113	0.956	-0.279	0.741	1.3
in vitro model: butyrate, time point: terminal (~4-5 doublings, model-specific)	0.0854	0.978	-0.148	0.802	1.05
in vitro model: cholesterol 0.05 mM, time point: constant (~7 days, model-specific)	0.141	0.693	-0.0883	0.0515	–
in vitro model: cholesterol 0.05 mM, time point: terminal (~4-5 doublings, model-specific)	0.148	0.925	-0.21	0.132	1.39
in vitro model: cholesterol-high 0.2 mM, time point: constant (~7 days, model-specific)	0.139	0.935	-1	0.411	0.869
in vitro model: cholesterol-high 0.2 mM, time point: terminal (~4-5 doublings, model-specific)	0.127	1	-1	-0.0894	0.513
in vitro model: dormancy (butyrate + nitrate, low O2), time point: constant (~7 days, model-specific)	0.0737	0.903	0.201	1.33	0.822
in vitro model: dormancy (butyrate + nitrate, low O2), time point: terminal (~4-5 doublings, model-specific)	0.0474	0.983	-0.18	1.18	0.998
in vitro model: standard 7H9 glycerol, time point: constant = terminal	0.105	0.971	-0.383	0.199	1.19
in vitro model: valerate, time point: constant (~7 days, model-specific)	0.124	0.868	-0.197	0.648	–
in vitro model: valerate, time point: terminal (~4-5 doublings, model-specific)	0.0951	0.919	-0.0235	0.275	1.06

CC(C)/N=c1\cc2n(-c3ccc(Cl)cc3)c3ccccc3nc-2cc1Nc1ccc(Cl)cc1 [clofazimine] + CC(=O)NC[C@H]1CN(c2ccc(N3CCOCC3)c(F)c2)C(=O)O1 [linezolid] + NC(=O)c1cnccn1 [pyrazinamide]
Conditions	AUC25, [4]	Einf, [1]	GRinf, [2]	total FIC50, [5]	total FIC90, [3]
in vitro model: acidic pH 5.7, time point: constant (~7 days, model-specific)	0.115	0.851	-0.367	-0.389	–
in vitro model: acidic pH 5.7, time point: terminal (~4-5 doublings, model-specific)	0.099	0.964	-0.333	0.309	-1.87
in vitro model: intracellular J774, time point: constant = terminal	–	0.935	-0.0585	–	0.0502

Conditions	AUC25, [4]	Einf, [1]	GRinf, [2]	total FIC50, [5]	total FIC90, [3]
in vitro model: butyrate, time point: constant (~7 days, model-specific)	0.121	0.931	-0.0985	-0.132	1.31
in vitro model: butyrate, time point: terminal (~4-5 doublings, model-specific)	0.08	0.95	-0.0789	-0.0376	0.0936
in vitro model: cholesterol 0.05 mM, time point: constant (~7 days, model-specific)	0.131	0.722	-0.114	–	–
in vitro model: cholesterol 0.05 mM, time point: terminal (~4-5 doublings, model-specific)	0.142	0.927	-0.198	0.348	–
in vitro model: cholesterol-high 0.2 mM, time point: constant (~7 days, model-specific)	0.137	0.934	-0.71	0.27	–
in vitro model: cholesterol-high 0.2 mM, time point: terminal (~4-5 doublings, model-specific)	0.128	1	-0.983	-0.375	0.282
in vitro model: dormancy (butyrate + nitrate, low O2), time point: constant (~7 days, model-specific)	0.104	0.958	-0.0605	0.947	1.54
in vitro model: dormancy (butyrate + nitrate, low O2), time point: terminal (~4-5 doublings, model-specific)	0.0414	0.986	-0.449	0.584	0.337
in vitro model: standard 7H9 glycerol, time point: constant = terminal	0.123	0.939	-0.131	0.477	–
in vitro model: valerate, time point: constant (~7 days, model-specific)	0.119	0.8	0.241	0.731	–
in vitro model: valerate, time point: terminal (~4-5 doublings, model-specific)	0.0593	0.874	0.183	0.277	-1.05
